# In patent publication US5840697A, “Peptide inhibitors of calmodulin” (Torrey Pines Institute for Molecular Studies, priority 1996, dated 1998):
# Like-named read-outs stand apart in the source and are kept apart here. Square brackets hold non-standard residues; d marks the D form. Peptide text beside a SMILES is read from it.
# How the values were obtained:
# [1] = target: calmodulin (Homo sapiens, UniProt P0DP23); assay: calcium-dependent phosphodiesterase assay (calmodulin activity); type: biochemical; details: for SPECIFICITY: comparison of IC50 for phosphodiesterase with IC50 for calmodulin
# Protocol: In the calcium dependent phosphodiesterase assay, calmodulin can be assayed by its ability to stimulate phosphodiesterase activity as determined by a two-step assay procedure illustrated by reactions (1) and (2) below. [drawing 1]
# During the first step of the assay cyclic adenosine 3'5'-monophosphate (cAMP) is incubated with calcium-activated phosphodiesterase (Cal-PDE), which hydrolyses the 3'bond producing adenosine 5'-monophosphate (5'-AMP). During the second step, 5'-AMP is quantitatively converted into adenosine and inorganic phosphate (Pi) through the action of a 5-nucleotidase. The reaction is followed by the measurement of the Pi formed by reading the absorbance at 660 nm after reacting with ammonium molybdate. The amount of Pi formed is directly related to the phosphodiesterase activity which depends on the level of activation by calmodulin.
# To sample assay tubes were added the following components: assay buffer, 25 ul; CaCl2, 5 ul; 5'-nucleotidase, 7.5 ul (stock solution is 10 units/ml); calmodulin 5 units; calmodulin inhibitor peptides to obtain the desired final concentration of 50 μM. The volume was then made up to 200 ul with water. Control blanks were prepared replacing the peptides with water. The added components were thoroughly mixed and the tubes incubated at 30° C. for 10 min. […] The samples were centrifuged to remove the protein precipitate and the 50 ul of the supernatant was withdrawn for phosphate measurement. […] The absorbance of the solution were read at 660 nm using water as a blank, identified as control "Calmo."
# The two controls used in the assay, one without and one with calmodulin, as indicated in FIG. 1 and Table I were as follows,: (1) PDE:
# These three controls were used in the calcium-dependent phosphodiesterase assay for reproducibility of the assay.
# In addition to the calcium-dependent phosphodiesterase assay data, IC50 values were determined for many of the peptides. The assay carried out for the determination in the IC50 values differed from the above screening assay by the concentration of the peptides being tested.
# (3) TFP: trifluoperazine; and (4) Calmidasolium: (1-[bis-(4-chlorophenyl)methyl]-3[-2-(2,4-dichlorophenyl)-2[(2,4-dichlorophenyl)methoxy]-ethyl]-1H-imidazolium chloride. The IC50 values were calculated using sigmoidal curve software (Graphpad, ISI; San Diego, Calif.) using the % inhibition at different mixture concentrations (see protocol for determination of % inhibition).
# The (L)-amino acid counterpart for five (5) of the all (D)-amino acid peptides identified from the PS-SCL were synthesized in order to study the stereoselectivity of the inhibition.
# [2] = target: phosphodiesterase; assay: calcium-dependent phosphodiesterase assay in the absence of calmodulin; type: biochemical; details: Table III
# Protocol: To sample assay tubes were added the following components: assay buffer, 25 ul; CaCl2, 5 ul; 5'-nucleotidase, 7.5 ul (stock solution is 10 units/ml); calmodulin 5 units; calmodulin inhibitor peptides to obtain the desired final concentration of 50 μM. The volume was then made up to 200 ul with water. Control blanks were prepared replacing the peptides with water. The added components were thoroughly mixed and the tubes incubated at 30° C. for 10 min. Then, 25 ul of cAMP at 10.8 mM was added and incubated for 90 min at 30° C. The reaction was stopped by the addition of 50 ul of 55% trichloroacetic acid (TCA). The samples were centrifuged to remove the protein precipitate and the 50 ul of the supernatant was withdrawn for phosphate measurement. To the supernatant aliquot, 50 ul ammonium molybdate (0.55% in 1.1 N sulfuric acid) was added, followed by the addition of 5 ul of reducing agent (24 g sodium bisulfite, 2.4 g sodium sulfite, 0.5 g of 1-amino-2-naphthol-4-sulfonic acid in 200 ml of water), and the contents were mixed by vortexing. The absorbance of the solution were read at 660 nm using water as a blank, identified as control "Calmo."
# As described above, one of the undesirable biological effects of existing calmodulin inhibitors is their non-specific binding to other proteins and the like. Therefore, the specificity of the instant inhibitory peptides for calmodulin was examined. The specificity was determined using the calcium-dependent phosphodiesterase assay described in Example I. The assay was carried out for the determination of IC50 values in the presence of calmodulin (IC50 value for calmodulin) and in the absence of calmodulin (IC50 for phosphodiesterase), the latter of which provides the effect of the inhibitory peptides on the phosphodiesterase.
# [3] = Table I, assayed at 75, 50 and 12.5 μM, average of repeated assays, read-out: Average IC50
# [4] = Table III, in the presence of calmodulin, read-out: IC50 (μM) for calmodulin
SMILES,"IC50 [1, 3] [µM]","IC50 [1, 4] [µM]",SPECIFICITY [1],IC50 [2] [µM],"calmodulin inhibitory activity, in words ([1]; (L)-amino acid peptides of Table II)","IC50 ([1]; Table II, (L)-amino acid peptides, concentrations 0.2 to 50.0 μM, read-out: IC50) [µM]"
CC[C@@H](C)[C@@H](NC(=O)[C@@H](CCC(N)=O)NC(=O)[C@@H](CC(C)C)NC(C)=O)C(=O)N[C@@H](C(=O)N[C@H](CC(C)C)C(=O)N[C@H](Cc1c[nH]c2ccccc12)C(N)=O)[C@H](C)CC [Ac-(D)Leu-(D)Gln-(D)Ile-(D)Ile-(D)Leu-(D)Trp-NH2] (Ac-[dL][dQ][dI][dI][dL][dW]-NH2),27,25,4.8,119,–,–
CC(=O)N[C@@H](CC(C)C)C(=O)N[C@@H](Cc1c[nH]c2ccccc12)C(=O)N[C@@H](CCCNC(=N)N)C(=O)N[C@@H](Cc1c[nH]cn1)C(=O)N[C@@H](CC(C)C)C(=O)N[C@@H](Cc1c[nH]c2ccccc12)C(N)=O [Ac-Leu-Trp-Arg-His-Leu-Trp-NH2] (Ac-LWRHLW-NH2),–,1.1,> 182,> 200,especially high activity,1.15
CC(=O)N[C@H](CC(C)C)C(=O)N[C@H](Cc1c[nH]c2ccccc12)C(=O)N[C@H](CCCNC(=N)N)C(=O)N[C@H](Cc1c[nH]cn1)C(=O)N[C@H](Cc1c[nH]cn1)C(=O)N[C@H](Cc1c[nH]c2ccccc12)C(N)=O [Ac-(D)Leu-(D)Trp-(D)Arg-(D)His-(D)His-(D)Trp-NH2] (Ac-[dL][dW][dR][dH][dH][dW]-NH2),1.1,–,100,112,–,–
CC[C@@H](C)[C@@H](NC(=O)[C@@H](Cc1c[nH]c2ccccc12)NC(=O)[C@@H](CC(C)C)NC(C)=O)C(=O)N[C@H](Cc1c[nH]cn1)C(=O)N[C@H](Cc1c[nH]cn1)C(=O)N[C@H](Cc1c[nH]c2ccccc12)C(N)=O [Ac-(D)Leu-(D)Trp-(D)Ile-(D)His-(D)His-(D)Trp-NH2] (Ac-[dL][dW][dI][dH][dH][dW]-NH2),8.5,12,2.4,30,–,–
CC[C@@H](C)[C@@H](NC(=O)[C@@H](CCCNC(=N)N)NC(=O)[C@@H](CCC(N)=O)NC(=O)[C@@H](CC(C)C)NC(C)=O)C(=O)N[C@H](Cc1c[nH]cn1)C(=O)N[C@H](Cc1c[nH]c2ccccc12)C(N)=O [Ac-(D)Leu-(D)Gln-(D)Arg-(D)Ile-(D)His-(D)Trp-NH2] (Ac-[dL][dQ][dR][dI][dH][dW]-NH2),19,–,–,–,–,–
CC[C@@H](C)[C@@H](NC(=O)[C@@H](CCC(N)=O)NC(=O)[C@@H](CC(C)C)NC(C)=O)C(=O)N[C@H](Cc1c[nH]cn1)C(=O)N[C@H](Cc1c[nH]cn1)C(=O)N[C@H](CCCNC(=N)N)C(N)=O [Ac-(D)Leu-(D)Gln-(D)Ile-(D)His-(D)His-(D)Arg-NH2] (Ac-[dL][dQ][dI][dH][dH][dR]-NH2),20,–,–,–,–,–
CC[C@@H](C)[C@@H](NC(=O)[C@@H](CCCNC(=N)N)NC(=O)[C@@H](CCC(N)=O)NC(=O)[C@@H](CC(C)C)NC(C)=O)C(=O)N[C@H](CC(C)C)C(=O)N[C@H](CCCNC(=N)N)C(N)=O [Ac-(D)Leu-(D)Gln-(D)Arg-(D)Ile-(D)Leu-(D)Arg-NH2] (Ac-[dL][dQ][dR][dI][dL][dR]-NH2),35,–,–,–,–,–
CC[C@@H](C)[C@@H](NC(=O)[C@@H](CCC(N)=O)NC(=O)[C@@H](CC(C)C)NC(C)=O)C(=O)N[C@@H](C(=O)N[C@H](Cc1c[nH]cn1)C(=O)N[C@H](Cc1c[nH]c2ccccc12)C(N)=O)[C@H](C)CC [Ac-(D)Leu-(D)Gln-(D)Ile-(D)Ile-(D)His-(D)Trp-NH2] (Ac-[dL][dQ][dI][dI][dH][dW]-NH2),17,–,–,–,–,–
CC[C@@H](C)[C@@H](NC(=O)[C@@H](Cc1c[nH]c2ccccc12)NC(=O)[C@@H](CC(C)C)NC(C)=O)C(=O)N[C@H](Cc1c[nH]cn1)C(=O)N[C@H](CC(C)C)C(=O)N[C@H](CCCNC(=N)N)C(N)=O [Ac-(D)Leu-(D)Trp-(D)Ile-(D)His-(D)Leu-(D)Arg-NH2] (Ac-[dL][dW][dI][dH][dL][dR]-NH2),7.8,–,–,–,–,–
CC(=O)N[C@H](CC(C)C)C(=O)N[C@H](CCC(N)=O)C(=O)N[C@H](CCCNC(=N)N)C(=O)N[C@H](Cc1c[nH]cn1)C(=O)N[C@H](CC(C)C)C(=O)N[C@H](Cc1c[nH]c2ccccc12)C(N)=O [Ac-(D)Leu-(D)Gln-(D)Arg-(D)His-(D)Leu-(D)Trp-NH2] (Ac-[dL][dQ][dR][dH][dL][dW]-NH2),20,–,–,–,–,–
